Where a name gives a salt, the structure may show the parent alone.
Legend:
[1] = target: Human MET (residues 956-1390) (Homo sapiens (Human), UniProt P08581); test: Human Met kinase assay, HTRF KinEase (Example D-2); type: biochemical; settings: protocol of Example D-2 (other compounds); read-out: c-Met IC50
Method in brief: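 IC50 values come from a 4-parameter logistic fit of the […] fluorescence ratio, set between DMSO (100%) and reference compound at 1 μM (0%). Reactions held MET 956-1390 at 0.1 ng/well, ATP at Km, biotinylated peptide, 5 mM MgCl2, 1 mM MnCl2, 1 mM DTT and 3% DMSO, and ran 40 min at room temperature before streptavidin-XL665/Eu-antibody detection.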

[2] = target: Human MER (residues 528-999) (Homo sapiens (Human), UniProt Q12866); test: Human Mer kinase assay, HTRF KinEase (Example C-2); type: biochemical; settings: protocol of Example C-2 (other compounds)
Chain of Human MER (residues 528-999) (Q12866 528-999): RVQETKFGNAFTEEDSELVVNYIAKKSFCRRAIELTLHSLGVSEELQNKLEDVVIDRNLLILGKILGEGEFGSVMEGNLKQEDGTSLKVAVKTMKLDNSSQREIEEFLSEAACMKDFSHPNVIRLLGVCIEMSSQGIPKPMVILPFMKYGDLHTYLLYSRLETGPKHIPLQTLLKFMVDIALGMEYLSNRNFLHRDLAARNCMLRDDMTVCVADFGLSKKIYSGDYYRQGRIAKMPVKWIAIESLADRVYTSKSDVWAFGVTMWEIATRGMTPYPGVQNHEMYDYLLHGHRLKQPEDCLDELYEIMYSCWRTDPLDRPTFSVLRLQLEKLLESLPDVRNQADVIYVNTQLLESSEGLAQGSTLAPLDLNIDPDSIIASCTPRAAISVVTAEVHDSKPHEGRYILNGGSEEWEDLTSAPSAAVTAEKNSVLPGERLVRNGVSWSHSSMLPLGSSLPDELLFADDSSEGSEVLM
Method in brief: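 IC50 values from 10 concentrations via 4-parameter logistic fit of […], with DMSO as 100% and 1 μM reference compound as 0% activity. Reaction: MER kinase domain 528-999, 1 ng/well, 40 μM ATP (Km), biotin peptide, 5 mM MgCl2, 1 mM DTT, 3% DMSO, room temperature 60 min; HTRF streptavidin-XL665/Eu-antibody detection.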

[3] = target: KDR (phospho-KDR, VEGF165-stimulated HUVEC cells) (Homo sapiens (Human), UniProt P35968); test: KDR autophosphorylation ELISA in HUVEC cells (Example G); type: cell-based; settings: cellular activity; KDR autophosphorylation ELISA in HUVEC cells
Chain of KDR (phospho-KDR, VEGF165-stimulated HUVEC cells) (P35968 20-1356): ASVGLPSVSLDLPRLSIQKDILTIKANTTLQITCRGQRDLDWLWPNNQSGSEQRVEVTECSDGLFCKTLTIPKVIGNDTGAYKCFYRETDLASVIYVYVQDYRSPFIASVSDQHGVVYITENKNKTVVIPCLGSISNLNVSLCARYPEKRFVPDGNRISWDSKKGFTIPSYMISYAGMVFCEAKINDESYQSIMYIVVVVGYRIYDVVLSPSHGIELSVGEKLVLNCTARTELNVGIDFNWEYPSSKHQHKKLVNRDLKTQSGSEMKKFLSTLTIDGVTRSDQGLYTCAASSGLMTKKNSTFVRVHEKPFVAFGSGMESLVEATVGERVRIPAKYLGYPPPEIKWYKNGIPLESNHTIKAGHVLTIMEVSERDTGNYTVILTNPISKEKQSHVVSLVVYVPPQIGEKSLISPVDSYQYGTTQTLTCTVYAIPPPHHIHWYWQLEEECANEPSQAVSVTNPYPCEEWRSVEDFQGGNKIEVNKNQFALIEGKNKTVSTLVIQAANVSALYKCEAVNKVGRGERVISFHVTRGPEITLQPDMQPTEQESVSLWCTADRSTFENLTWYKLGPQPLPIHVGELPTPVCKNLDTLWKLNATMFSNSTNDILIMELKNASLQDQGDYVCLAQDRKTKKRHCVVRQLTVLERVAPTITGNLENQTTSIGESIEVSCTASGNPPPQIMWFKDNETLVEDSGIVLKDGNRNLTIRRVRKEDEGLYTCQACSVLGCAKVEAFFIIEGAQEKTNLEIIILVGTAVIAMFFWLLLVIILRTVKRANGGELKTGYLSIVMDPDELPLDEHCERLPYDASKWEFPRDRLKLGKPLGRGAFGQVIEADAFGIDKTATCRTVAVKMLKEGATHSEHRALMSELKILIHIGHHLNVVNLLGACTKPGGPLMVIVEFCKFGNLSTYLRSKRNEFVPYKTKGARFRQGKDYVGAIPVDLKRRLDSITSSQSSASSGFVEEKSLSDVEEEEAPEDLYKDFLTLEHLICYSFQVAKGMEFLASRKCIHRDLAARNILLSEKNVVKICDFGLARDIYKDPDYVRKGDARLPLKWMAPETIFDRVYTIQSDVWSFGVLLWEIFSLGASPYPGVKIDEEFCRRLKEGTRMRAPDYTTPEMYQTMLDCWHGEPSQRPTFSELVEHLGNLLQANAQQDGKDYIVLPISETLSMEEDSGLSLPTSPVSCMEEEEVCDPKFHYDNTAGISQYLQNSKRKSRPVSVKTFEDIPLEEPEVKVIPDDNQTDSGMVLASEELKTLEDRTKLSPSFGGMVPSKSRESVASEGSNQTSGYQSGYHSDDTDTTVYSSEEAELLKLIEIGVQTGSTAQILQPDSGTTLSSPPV
Method in brief: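 First, endothelial cells were cultured a day, then kept without serum for another day. Next came 1 h with serially diluted compound, a brief 5 min VEGF165 stimulus (100 ng/mL), rapid lysis, and ELISA detection of receptor phosphorylation relative to stimulated and non-stimulated controls.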

Chain of Human MET (residues 956-1390) (P08581 956-1390): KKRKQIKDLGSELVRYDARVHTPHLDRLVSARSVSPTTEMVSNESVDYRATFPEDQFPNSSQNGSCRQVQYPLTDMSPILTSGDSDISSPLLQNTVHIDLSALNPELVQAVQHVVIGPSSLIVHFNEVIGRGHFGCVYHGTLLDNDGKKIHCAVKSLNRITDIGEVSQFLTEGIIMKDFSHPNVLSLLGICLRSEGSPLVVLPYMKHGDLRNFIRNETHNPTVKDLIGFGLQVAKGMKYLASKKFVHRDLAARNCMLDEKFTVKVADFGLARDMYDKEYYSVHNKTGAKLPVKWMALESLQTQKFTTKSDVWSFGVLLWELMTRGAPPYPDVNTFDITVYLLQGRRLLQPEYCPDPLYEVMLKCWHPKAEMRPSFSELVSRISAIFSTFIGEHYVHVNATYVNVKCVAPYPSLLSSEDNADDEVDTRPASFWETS

| IC50 [1] | IC50 [2] | IC50 [3] | SMILES |
| --- | --- | --- | --- |
| 100 to 300 nM | < 100 nM | < 100 nM | CCc1nc(C)c(-c2ccc(F)cc2C)c(O)c1C(=O)Nc1ccc(Oc2ccnc3cc(OC)c(OC)nc23)cc1 [Compound 203, N-[4-[(6,7-Dimethoxy-1,5-naphthyridin-4-yl)oxy]phenyl]-2-ethyl-5-(4-fluoro-2-methylphenyl)-4-hydroxy-6-methylpyridine-3-carboxamide] |
| 100 to 300 nM | < 100 nM | < 100 nM | COCc1nc(C)c(-c2ccc(F)cc2C)c(O)c1C(=O)Nc1ccc(Oc2ccnc3ccc(OC)nc23)c(F)c1 [Compound 195, N-[3-Fluoro-4-[(6-methoxy-1,5-naphthyridin-4-yl)oxy]phenyl]-5-(4-fluoro-2-methylphenyl)-4-hydroxy-2-(methoxymethyl)-6-methylpyridine-3-carboxamide] |
| < 100 nM | < 100 nM | > 300 nM | COc1cnc2c(Oc3ccc(NC(=O)c4cn(C)c(C)c(-c5ccc(F)cc5C)c4=O)cc3F)ccnc2c1 [Compound 181, N-[3-Fluoro-4-[(7-methoxy-1,5-naphthyridin-4-yl)oxy]phenyl]-5-(4-fluoro-2-methylphenyl)-1,6-dimethyl-4-oxopyridine-3-carboxamide] |
| < 100 nM | < 100 nM | 100 to 300 nM | COc1cc2nccc(Oc3ccc(NC(=O)c4cn(C)c(C)c(-c5ccccc5)c4=O)cc3F)c2nc1OC [Compound 36, N-[4-[(6,7-Dimethoxy-1,5-naphthyridin-4-yl)oxy]-3-fluorophenyl]-1,6-dimethyl-4-oxo-5-phenylpyridine-3-carboxamide hydrochloride] |
| < 100 nM | < 100 nM | < 100 nM | COc1cnc2c(Oc3ccc(NC(=O)c4c(C)nc(C)n(-c5ccc(F)cc5)c4=O)cc3F)ccnc2c1 [Compound 257, N-[3-Fluoro-4-[(7-methoxy-1,5-naphthyridin-4-yl)oxy]phenyl]-1-(4-fluorophenyl)-2,4-dimethyl-6-oxopyrimidine-5-carboxamide] |
| < 100 nM | < 100 nM | < 100 nM | COc1cc2nccc(Oc3ccc(NC(=O)c4ccc(C)n(-c5ccc(F)cc5C)c4=O)cc3F)c2nc1OC [Compound 219, N-[4-[(6,7-Dimethoxy-1,5-naphthyridin-4-yl)oxy]-3-fluorophenyl]-1-(4-fluoro-2-methylphenyl)-6-methyl-2-oxopyridine-3-carboxamide] |
| < 100 nM | < 100 nM | < 100 nM | COc1cc2nccc(Oc3ccc(NC(=O)c4ccc(C)n(-c5ccc(F)cc5)c4=O)cc3)c2nc1OC [Compound 229, N-[4-[(6,7-Dimethoxy-1,5-naphthyridin-4-yl)oxy]phenyl]-1-(4-fluorophenyl)-6-methyl-2-oxopyridine-3-carboxamide] |
